Literature values, collected in US20110217294A1, “COMBINATION OF HGF INHIBITOR AND HEDGEHOG INHIBITOR TO TREAT CANCER” (priority 2009, published 2011).

What was measured:
[1] = target: heparin sulfate proteoglycans (HSPG); conditions: low affinity binding site
[2] = target: cMet receptor (Homo sapiens, UniProt P08581); conditions: high affinity binding site
Sequence of cMet receptor (P08581 25-1390): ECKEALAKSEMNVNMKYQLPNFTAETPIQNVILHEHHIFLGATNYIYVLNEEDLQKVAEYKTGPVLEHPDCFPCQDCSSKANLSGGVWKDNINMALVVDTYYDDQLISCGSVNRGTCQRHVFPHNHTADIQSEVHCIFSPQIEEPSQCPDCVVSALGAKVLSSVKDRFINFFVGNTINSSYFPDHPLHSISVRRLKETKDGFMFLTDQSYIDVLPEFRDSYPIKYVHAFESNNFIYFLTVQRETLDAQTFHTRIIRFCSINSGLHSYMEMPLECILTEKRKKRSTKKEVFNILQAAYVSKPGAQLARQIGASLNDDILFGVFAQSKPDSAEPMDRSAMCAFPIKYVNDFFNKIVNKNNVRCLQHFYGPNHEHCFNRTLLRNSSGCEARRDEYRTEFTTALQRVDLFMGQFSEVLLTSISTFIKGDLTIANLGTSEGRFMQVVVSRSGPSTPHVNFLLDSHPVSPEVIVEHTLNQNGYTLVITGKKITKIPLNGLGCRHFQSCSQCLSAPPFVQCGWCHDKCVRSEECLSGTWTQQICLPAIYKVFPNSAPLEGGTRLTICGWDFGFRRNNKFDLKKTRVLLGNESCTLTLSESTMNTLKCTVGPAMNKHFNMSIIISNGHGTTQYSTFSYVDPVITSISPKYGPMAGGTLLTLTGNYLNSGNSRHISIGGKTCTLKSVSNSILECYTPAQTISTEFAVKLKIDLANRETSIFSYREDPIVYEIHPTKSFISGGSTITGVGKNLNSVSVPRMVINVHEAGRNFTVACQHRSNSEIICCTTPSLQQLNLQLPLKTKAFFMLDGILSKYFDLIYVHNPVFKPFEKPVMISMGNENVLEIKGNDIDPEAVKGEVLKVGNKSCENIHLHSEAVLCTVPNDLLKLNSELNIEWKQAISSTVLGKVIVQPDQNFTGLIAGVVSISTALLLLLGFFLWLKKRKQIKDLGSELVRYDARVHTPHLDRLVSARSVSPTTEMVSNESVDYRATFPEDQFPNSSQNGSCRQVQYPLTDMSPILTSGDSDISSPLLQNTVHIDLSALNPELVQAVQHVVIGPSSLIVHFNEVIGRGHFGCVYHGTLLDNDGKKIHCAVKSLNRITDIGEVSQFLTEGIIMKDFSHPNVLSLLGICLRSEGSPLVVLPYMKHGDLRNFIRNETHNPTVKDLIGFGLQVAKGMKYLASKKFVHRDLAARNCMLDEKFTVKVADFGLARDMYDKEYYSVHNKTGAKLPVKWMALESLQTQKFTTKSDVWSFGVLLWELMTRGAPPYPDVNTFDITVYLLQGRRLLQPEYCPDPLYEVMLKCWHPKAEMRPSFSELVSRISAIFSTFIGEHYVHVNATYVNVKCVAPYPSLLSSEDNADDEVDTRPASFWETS

In the case of “HGF: Human Hepatocyte Growth Factor, 102 kDa heterodimeric polypeptide”, the Kd [1] is listed as 1 nM and the Kd [2] is listed as 0.2 nM.
